Assay results reported in US20250230193A1, “CYCLIC COMPOUND HAVING SELECTIVE KRAS INHIBITORY EFFECT ON HRAS AND NRAS” (CHUGAI SEIYAKU KABUSHIKI KAISHA, priority 2022, published 2025).
*1 amine or outer side, *2 acyl side, *3 side chain or, on linkers, in order; H or OH if unused. Where a SMILES comes first, the peptide text is derived from it. Bridges are numbered along the chain shown (N, C = ends). [ ]: non-standard residue; d: D form. The star is where a group is joined. hPhe(3,5-F2-4-CF3) = N[C@@H](CCc1cc(F)c(C(F)(F)F)c(F)c1)C(=O)O; hPhe(3-Cl-4-CF3) = N[C@@H](CCc1ccc(C(F)(F)F)c(Cl)c1)C(=O)O; NPrPhe(4-CF3) = CCCN[C@@H](Cc1ccc(C(F)(F)F)cc1)C(=O)O; NMeGly(cPent) = CN[C@H](C(=O)O)C1CCCC1; X13 = CCC[C@](C)(N[*:1])C(=O)[*:2]; αMeI = CC[C@H](C)[C@](C)(N)C(=O)O; X15 = O=C(CN(CC(F)F)[*:1])[*:2]; NMeD = CN[C@@H](CC(=O)O)C(=O)O; NMeL = CN[C@@H](CC(C)C)C(=O)O; αMeV = CC(C)[C@](C)(N)C(=O)O; Iva = CC[C@](C)(N)C(=O)O; Morpholide = C1CN(*)CCO1; Ac5c = NC1(C(=O)O)CCCC1; Sar = CNCC(=O)O

Columns and labels:
[1] = target: GDP-bound NRAS wild-type protein (Homo sapiens, UniProt P01111); experiment: Binding to NRAS by surface plasmon resonance (SPR), Single Cycle Kinetics; conditions: KD ratio NRAS/KRAS, SPR
[2] = target: GDP-bound HRAS wild-type protein (Homo sapiens, UniProt P01112); experiment: Binding to HRAS by surface plasmon resonance (SPR), Single Cycle Kinetics; conditions: KD ratio HRAS/KRAS, SPR
GDP-bound HRAS wild-type protein, sequence (P01112 whole entry): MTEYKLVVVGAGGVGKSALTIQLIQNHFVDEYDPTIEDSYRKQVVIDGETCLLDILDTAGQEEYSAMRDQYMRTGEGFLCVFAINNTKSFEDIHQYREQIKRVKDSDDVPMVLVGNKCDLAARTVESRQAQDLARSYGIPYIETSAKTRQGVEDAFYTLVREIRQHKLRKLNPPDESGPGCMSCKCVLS

GDP-bound NRAS wild-type protein, sequence (P01111 whole entry): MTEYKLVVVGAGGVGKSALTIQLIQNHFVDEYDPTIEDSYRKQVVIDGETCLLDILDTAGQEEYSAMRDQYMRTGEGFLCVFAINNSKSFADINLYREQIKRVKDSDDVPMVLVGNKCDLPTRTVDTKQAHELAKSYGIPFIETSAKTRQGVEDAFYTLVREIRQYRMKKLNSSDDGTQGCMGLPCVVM

| SMILES | NRAS/KRAS (ratio of KD value with respect to GDP-bound NRAS wild-type protein to KD value with respect to KRAS) [1] | HRAS/KRAS (ratio of KD value with respect to GDP-bound HRAS wild-type protein to KD value with respect to KRAS) [2] |
| --- | --- | --- |
| CCCN1C(=O)CN(C)C(=O)CN(CC(F)F)C(=O)[C@H]([C@@H](C)CC)NC(=O)[C@H](CC(C)C)N(C)C(=O)C[C@@H](C(=O)N2CCOCC2)N(C)C(=O)[C@H](C2CCCC2)N(C)C(=O)C2(CCCC2)NC(=O)[C@@H]2CCCN2C(=O)[C@H](CCc2ccc(C(F)(F)F)c(Cl)c2)NC(=O)CN(C)C(=O)[C@@H]1Cc1ccc(C(F)(F)F)cc1 [PP0752] ([NMeL]I[X15][Sar][NPrPhe(4-CF3)][Sar][hPhe(3-Cl-4-CF3)]P[Ac5c][NMeGly(cPent)][NMeD]-Morpholide; lactam N-11) | B (a compound having 3 or more and less than 10 is denoted as B) | B (a compound having 3 or more and less than 10 is denoted as B) |
| CCCN1C(=O)CN(C)C(=O)CN(C)C(=O)[C@H]([C@@H](C)CC)NC(=O)[C@H](CC(C)C)N(C)C(=O)C[C@@H](C(=O)N2CCOCC2)N(C)C(=O)[C@H](C2CCCC2)N(C)C(=O)C2(CCCC2)NC(=O)[C@@H]2CCCN2C(=O)[C@H](CCc2cc(F)c(C(F)(F)F)c(F)c2)NC(=O)CN(C)C(=O)[C@@H]1Cc1ccc(C(F)(F)F)cc1 [PP0753] ([NMeL]I[Sar][Sar][NPrPhe(4-CF3)][Sar][hPhe(3,5-F2-4-CF3)]P[Ac5c][NMeGly(cPent)][NMeD]-Morpholide; lactam N-11) | B (a compound having 3 or more and less than 10 is denoted as B) | C (A compound having a KD ratio of 0.1 or more and less than 3 is denoted as C) |
| CCCN1C(=O)CN(C)C(=O)CN(C)C(=O)[C@H]([C@@H](C)CC)NC(=O)[C@H](CC(C)C)N(C)C(=O)C[C@@H](C(=O)N2CCOCC2)N(C)C(=O)[C@H](C2CCCC2)N(C)C(=O)[C@](C)(CC)NC(=O)[C@@H]2CCCN2C(=O)[C@H](CCc2cc(F)c(C(F)(F)F)c(F)c2)NC(=O)CN(C)C(=O)[C@@H]1Cc1ccc(C(F)(F)F)cc1 [PP0754] ([NMeL]I[Sar][Sar][NPrPhe(4-CF3)][Sar][hPhe(3,5-F2-4-CF3)]P[Iva][NMeGly(cPent)][NMeD]-Morpholide; lactam N-11) | B (a compound having 3 or more and less than 10 is denoted as B) | C (A compound having a KD ratio of 0.1 or more and less than 3 is denoted as C) |
| CCCN1C(=O)CN(C)C(=O)CN(C)C(=O)[C@H]([C@@H](C)CC)NC(=O)[C@H](CC(C)C)N(C)C(=O)C[C@@H](C(=O)N2CCOCC2)N(C)C(=O)[C@H](C2CCCC2)N(C)C(=O)[C@](C)(C(C)C)NC(=O)[C@@H]2CCCN2C(=O)[C@H](CCc2cc(F)c(C(F)(F)F)c(F)c2)NC(=O)CN(C)C(=O)[C@@H]1Cc1ccc(C(F)(F)F)cc1 [PP0756] ([NMeL]I[Sar][Sar][NPrPhe(4-CF3)][Sar][hPhe(3,5-F2-4-CF3)]P[αMeV][NMeGly(cPent)][NMeD]-Morpholide; lactam N-11) | B (a compound having 3 or more and less than 10 is denoted as B) | B (a compound having 3 or more and less than 10 is denoted as B) |
| CCCN1C(=O)CN(C)C(=O)CN(C)C(=O)[C@H]([C@@H](C)CC)NC(=O)[C@H](CC(C)C)N(C)C(=O)C[C@@H](C(=O)N2CCOCC2)N(C)C(=O)[C@H](C2CCCC2)N(C)C(=O)[C@](C)([C@@H](C)CC)NC(=O)[C@@H]2CCCN2C(=O)[C@H](CCc2cc(F)c(C(F)(F)F)c(F)c2)NC(=O)CN(C)C(=O)[C@@H]1Cc1ccc(C(F)(F)F)cc1 [PP0757] ([NMeL]I[Sar][Sar][NPrPhe(4-CF3)][Sar][hPhe(3,5-F2-4-CF3)]P[αMeI][NMeGly(cPent)][NMeD]-Morpholide; lactam N-11) | B (a compound having 3 or more and less than 10 is denoted as B) | C (A compound having a KD ratio of 0.1 or more and less than 3 is denoted as C) |
| CCCN1C(=O)CN(C)C(=O)CN(C)C(=O)[C@H]([C@@H](C)CC)NC(=O)[C@H](CC(C)C)N(C)C(=O)C[C@@H](C(=O)N2CCOCC2)N(C)C(=O)[C@H](C2CCCC2)N(C)C(=O)[C@](C)(CCC)NC(=O)[C@@H]2CCCN2C(=O)[C@H](CCc2cc(F)c(C(F)(F)F)c(F)c2)NC(=O)CN(C)C(=O)[C@@H]1Cc1ccc(C(F)(F)F)cc1 [PP0758] ([NMeL]I[Sar][Sar][NPrPhe(4-CF3)][Sar][hPhe(3,5-F2-4-CF3)]P[X13][NMeGly(cPent)][NMeD]-Morpholide; lactam N-11) | B (a compound having 3 or more and less than 10 is denoted as B) | C (A compound having a KD ratio of 0.1 or more and less than 3 is denoted as C) |
